Assays:
[1] = tested on: human Herpes Simplex 1 (HSV-1) virus; experiment: HSV-1 virus yield in A549 host cells by plaque forming assay, with Bliss synergy score; format: cell-based; conditions: for HSV-1 yield suppression, single agent: A549 host cells, MOI 0.3, three days, 50 nM RUVIDAR or RUTHERRIN, 1 μM Acyclovir, 0.2% DMSO
Protocol: A549 human lung cancer cells are used as a host for virus growth, treatment, and later survival quantification. A549 cells are plated overnight, then incubated for 4 hours with or without 50 nM RUVIDAR or RUTHERRIN, with or without 1 μM Acyclovir or 0.2% DMSO (concentration non-toxic for the host cells). After the initial incubation of the host cells with the compounds, the cells are infected with the human Herpes Simplex 1 (HSV-1) virus at the multiplicity of infection (MOI)=0.3 and further incubated for three days (the mentioned compounds are still present in the culture media over the full course of incubation). After that, supernatant is harvested, centrifuged to remove debris, and the yield of infectious virus is determined by plaque forming assay (PFA) using supernatant for the host cells infection. The formed plaques are counted, and virus titer is calculated as Plaque Forming Units/mL=(Plaques number*Dilution)/Volume of Virus Inoculum. Titers normalized for control titer (untreated HSV-1 and host cells) produce relative virus yield (which is equivalent to inhibition rate).
The data are presented as virus yield normalized to Control. To estimate synergistic effect of two combined compounds, synergy Bliss score was calculated, as the difference between the actual inhibiting effect of the combination and the predicted inhibiting effect under “no synergy” assumption (Bliss score): Synergy score=Inhibition_RateCompound1 & Compound2−(Inhibition_RateCompound1+Inhibition_RateCompound2−Inhibition_RateCompound1* Inhibition_RateCompound2).

[2] = tested on: A549 human Non-Small Cell Lung Cancer cells; experiment: Hoechst 33342 dye accumulation by flow cytometry (MFI); format: cell-based; conditions: 3 μM 4 hours, then Hoechst 33342 1 hour
Protocol: (§1) Hoechst 33342 is a nuclear dye commonly used to quantify drug efflux dynamics and drug accumulation in cells. […] Cells were then collected, and the MFI was determined by flow cytometry.

[3] = tested on: U87 human glioma cells; experiment: as above; format: cell-based; conditions: 3 μM 4 hours, then Hoechst 33342 1 hour
Protocol: as §1

[4] = tested on: U87 human glioma cancer cells; experiment: Presto Blue cell survival, RUVIDAR with or without N-acetylcysteine; format: cell-based; conditions: overnight
Protocol: U87 human glioma cancer cells were plated overnight, then treated with different doses of RUVIDAR in the presence or absence of N-acetylcysteine, a known ROS scavenger to quench the increase in ROS production. Cells were incubated overnight, and cell survival was analyzed using Presto Blue assay.

[5] = tested on: CD47; experiment: CD47 expression by flow cytometry in T24 cells; format: cell-based, human; conditions: 3 μM for 2 days, MFI normalized to untreated cells
Sequence of CD47 (Q08722 19-323): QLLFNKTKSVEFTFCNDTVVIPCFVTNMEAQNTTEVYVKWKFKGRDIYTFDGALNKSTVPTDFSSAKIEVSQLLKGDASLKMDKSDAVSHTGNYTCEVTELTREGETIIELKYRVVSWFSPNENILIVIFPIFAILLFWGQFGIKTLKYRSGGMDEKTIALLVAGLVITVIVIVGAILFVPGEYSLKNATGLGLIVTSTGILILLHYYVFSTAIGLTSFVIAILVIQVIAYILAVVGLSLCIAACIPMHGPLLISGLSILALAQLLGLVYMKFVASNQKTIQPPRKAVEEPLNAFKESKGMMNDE
Protocol: (§2) In the tests whose results are shown in FIGS. 8A and 8B, T24 human bladder cancer cells or U87 human glioma cells were treated with 3 μM of RUVIDAR or RUTHERRIN for 2 days, and cells were collected and stained with fluorescent-labelled antibodies to CD47 and PD-L1 and analyzed by flow cytometry. MFI was normalized to control untreated cells and expressed as percentage of change.

[6] = tested on: PD-L1; experiment: PD-L1 expression by flow cytometry in T24 cells; format: cell-based, human; conditions: 3 μM for 2 days, MFI normalized to untreated cells
Sequence of PD-L1 (Q9NZQ7 19-290): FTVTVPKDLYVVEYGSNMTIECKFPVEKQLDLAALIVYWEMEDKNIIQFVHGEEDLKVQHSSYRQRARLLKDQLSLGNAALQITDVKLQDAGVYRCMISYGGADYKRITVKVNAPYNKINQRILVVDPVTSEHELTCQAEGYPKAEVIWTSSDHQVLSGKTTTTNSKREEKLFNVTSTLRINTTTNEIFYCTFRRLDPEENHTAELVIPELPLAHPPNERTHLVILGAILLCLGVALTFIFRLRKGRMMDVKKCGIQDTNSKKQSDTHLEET
Protocol: as §2

[7] = tested on: CD47; experiment: CD47 expression in A549 cells, RUVIDAR or RUTHERRIN with or without ionizing radiation; format: cell-based, human; conditions: 3 μM
Protocol: In the tests whose results are shown in FIGS. 8C and 8D, U87 human glioma cells or A549 lung cancer cells were treated with 3 μM of RUTHERRIN or RUVIDAR prior to drug activation by 530 nm laser light (photodynamic therapy, PDT) or ionizing radiation. Cells were then collected and stained with fluorescent antibody to CD47 and analyzed by flow cytometry. MFI was normalized to control untreated cells and expressed as percentage of change.

[8] = 50 nM RUVIDAR or RUTHERRIN plus 1 μM Acyclovir
[9] = 50 nM RUVIDAR or RUTHERRIN plus 0.2% DMSO

| Molecule | HSV-1 yield suppression, single agent [1] | Hoechst 33342 dye accumulation (MFI) [2] | Hoechst 33342 dye accumulation (MFI) [3] | cell kill percent ([4]; RUVIDAR only, different doses) | cell kill percent in the presence of N-acetylcysteine ([4]; RUVIDAR plus ROS scavenger N-acetylcysteine) | HSV-1 yield suppression, combined with Acyclovir [1, 8] | synergy score (Bliss), combined with Acyclovir [1, 8] | HSV-1 yield suppression, combined with DMSO [1, 9] | synergy score (Bliss), combined with DMSO [1, 9] | percentage change in expression of CD47 [5] | percentage change in expression of PD-L1 [6] | percentage change in CD47 expression, drug alone ([7]; no radiation) | percentage change in CD47 expression, with ionizing radiation ([7]; then ionizing radiation) |
| --- | --- | --- | --- | --- | --- | --- | --- | --- | --- | --- | --- | --- | --- |
| Nc1nc2c(ncn2COCCO)c(=O)[nH]1 [Acyclovir, reference compound] | anti-viral effect to various degrees | – | – | – | – | – | – | – | – | – | – | – | – |
| C[S+](C)[O-] [DMSO] | anti-viral effect to various degrees | – | – | – | – | – | – | – | – | – | – | – | – |
| Ru(4,4′-dimethyl-2,2′-bipyridine)2(2-(2′,2″:5″,2″-terthiophene)-imidazo[4,5-f][1,10] phenanthroline) [RUVIDAR] | anti-viral effect to various degrees | increases dye accumulation inside the cells | increases dye accumulation inside the cells | dose-dependent increase in cell kill | significantly reduced | significantly potentiated | 0.040±0.013 | significantly potentiated | 0.030±0.010 | significantly reduced | significantly reduced | significantly reduced | more significant reduction |

From patent publication US20250375458A1, “COMPOSITIONS AND METHODS TO COMBAT MULTIDRUG-RESISTANT AND […]-CELL-MEDIATED, O[…] INFECTIOUS DISEASES” (Theralase Technologies, Inc., priority 2024, published 2025)
